Converted amounts (≈) assume the structure as drawn. “And” between values parts separate entries of the source, which are not always exact repeats. Identical values can stand only once. Like-named read-outs stand apart in the source and are kept apart here.
Key:
[1] = molecular target: ClpC1 NTD protein (M. tuberculosis) (Mycobacterium tuberculosis, UniProt P9WPC9); experiment: biochemical; assay type: binding
in vitro = conditions: human
Outline: (§1)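 Values are bidirectional Caco-2 apparent permeabilities, P(A−B) and P(B−A), given in 10^-6 cm s-1. The efflux ratio divides P(B−A) by P(A−B), and intrinsic permeability averages the two directions.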

Caco-2 monolayers = experiment: in vitro; conditions: human, Caco-2
Outline: as §1

[2] = assay type: in vitro ADME, Mice
Experimental: (§2) The kinetics of compound degradation in liver microsomes is assessed in an assay with 1 µmol/l of compound and 0.5 mg/ml liver microsomes in a medium of 100 mM Tris-HCl pH 7.5, 6.5 mM MgCl2 and 1 mM NADPH at 37 °C. The reaction is stopped at multiple time points by adding acetonitrile. After centrifugation, the compound concentration is measured in the supernatants by high-performance liquid chromatography (HPLC) tandem mass spectrometry (MS/MS). The results are fitted to a first-order decay and the half-lives are converted to clearance (stated as % of the liver blood flow (%Qh)) using the well-stirred liver model.

[3] = assay type: in vitro ADME, Rat
Experimental: as §2

[4] = Microsomal stability, human; assay type: in vitro ADME
Outline: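 Clearance, expressed as % liver blood flow (%Qh), derived by the well-stirred model from first-order half-lives. Depletion monitored by HPLC-MS/MS in acetonitrile-stopped samples over time; 37 °C, NADPH 1 mM, microsomes 0.5 mg/ml, compound 1 µmol/l, Tris-HCl pH 7.5 with MgCl2.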

[5] = Hepatocyte stability, mice; assay type: in vitro ADME; conditions: mouse, pH 7.4
Outline: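 Clearance expressed as % of liver blood flow (% Qh), derived from half-life via the well-stirred liver model. Compound at 1 µM final was incubated up to 6 h with ~1 million cells/mL hepatocytes in 50% serum buffer, 37 °C, pH 7.4.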

[6] = assay type: in vitro ADME, Rat; conditions: rat, pH 7.4
[7] = assay type: in vitro ADME, Human; conditions: human, pH 7.4
[8] = system: M. tuberculosis H37Rv (ATCC 27294); experiment: microbe, parasite or virus in culture; assay type: cell-based
Msm 607 = experiment: microbe, parasite or virus in culture; assay type: cell-based
Msm 700084 = experiment: microbe, parasite or virus in culture; assay type: cell-based
[9] = molecular target: His6-tagged ClpC1-NTD substrate, M. smegmatis ClpC1P1P2 (UniProt A0R574+P9WPC9); experiment: biochemical; assay type: biochemical
Sequence of His6-tagged ClpC1-NTD substrate, M. smegmatis ClpC1P1P2 (P9WPC9 1-156, looked up, natural form): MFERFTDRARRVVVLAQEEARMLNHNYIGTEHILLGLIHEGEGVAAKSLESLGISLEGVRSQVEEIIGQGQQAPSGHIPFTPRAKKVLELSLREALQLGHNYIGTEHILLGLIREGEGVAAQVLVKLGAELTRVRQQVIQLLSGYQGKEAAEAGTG
Sequence of His6-tagged ClpC1-NTD substrate, M. smegmatis ClpC1P1P2 (A0R574 whole entry): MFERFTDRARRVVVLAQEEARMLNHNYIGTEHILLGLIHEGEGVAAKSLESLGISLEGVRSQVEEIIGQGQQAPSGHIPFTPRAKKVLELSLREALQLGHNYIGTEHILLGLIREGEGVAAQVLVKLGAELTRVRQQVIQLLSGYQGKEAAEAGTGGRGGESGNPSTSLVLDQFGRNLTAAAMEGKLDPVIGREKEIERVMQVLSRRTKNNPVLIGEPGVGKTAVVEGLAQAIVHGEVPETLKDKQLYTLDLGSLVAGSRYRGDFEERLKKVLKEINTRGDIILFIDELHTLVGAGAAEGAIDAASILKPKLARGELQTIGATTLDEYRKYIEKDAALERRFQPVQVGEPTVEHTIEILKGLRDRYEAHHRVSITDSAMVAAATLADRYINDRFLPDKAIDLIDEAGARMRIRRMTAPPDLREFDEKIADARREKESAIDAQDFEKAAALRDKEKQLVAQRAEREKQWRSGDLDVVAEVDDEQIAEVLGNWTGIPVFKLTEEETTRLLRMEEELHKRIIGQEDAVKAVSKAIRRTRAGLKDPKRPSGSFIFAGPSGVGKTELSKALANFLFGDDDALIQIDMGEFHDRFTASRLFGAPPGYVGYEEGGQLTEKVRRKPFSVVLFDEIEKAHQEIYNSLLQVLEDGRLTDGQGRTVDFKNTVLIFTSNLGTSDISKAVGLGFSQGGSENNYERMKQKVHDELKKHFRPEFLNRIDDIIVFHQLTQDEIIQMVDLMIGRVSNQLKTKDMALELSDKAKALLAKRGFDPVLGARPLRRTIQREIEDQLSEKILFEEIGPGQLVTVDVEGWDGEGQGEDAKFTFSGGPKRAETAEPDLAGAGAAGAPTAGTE

[10] = molecular target: ClpC1-NTD substrate, M. tuberculosis ClpC1P1P2 (Mycobacterium tuberculosis, UniProt P9WPC9); experiment: biochemical; assay type: biochemical
Sequence of ClpC1-NTD substrate, M. tuberculosis ClpC1P1P2 (P9WPC5 whole entry): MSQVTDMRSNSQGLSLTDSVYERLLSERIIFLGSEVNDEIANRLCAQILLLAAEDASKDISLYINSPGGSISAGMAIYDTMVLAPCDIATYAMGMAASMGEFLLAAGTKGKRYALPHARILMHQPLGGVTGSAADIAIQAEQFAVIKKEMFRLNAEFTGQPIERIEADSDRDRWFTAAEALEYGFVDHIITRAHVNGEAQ
Sequence of ClpC1-NTD substrate, M. tuberculosis ClpC1P1P2 (P9WPC9 whole entry): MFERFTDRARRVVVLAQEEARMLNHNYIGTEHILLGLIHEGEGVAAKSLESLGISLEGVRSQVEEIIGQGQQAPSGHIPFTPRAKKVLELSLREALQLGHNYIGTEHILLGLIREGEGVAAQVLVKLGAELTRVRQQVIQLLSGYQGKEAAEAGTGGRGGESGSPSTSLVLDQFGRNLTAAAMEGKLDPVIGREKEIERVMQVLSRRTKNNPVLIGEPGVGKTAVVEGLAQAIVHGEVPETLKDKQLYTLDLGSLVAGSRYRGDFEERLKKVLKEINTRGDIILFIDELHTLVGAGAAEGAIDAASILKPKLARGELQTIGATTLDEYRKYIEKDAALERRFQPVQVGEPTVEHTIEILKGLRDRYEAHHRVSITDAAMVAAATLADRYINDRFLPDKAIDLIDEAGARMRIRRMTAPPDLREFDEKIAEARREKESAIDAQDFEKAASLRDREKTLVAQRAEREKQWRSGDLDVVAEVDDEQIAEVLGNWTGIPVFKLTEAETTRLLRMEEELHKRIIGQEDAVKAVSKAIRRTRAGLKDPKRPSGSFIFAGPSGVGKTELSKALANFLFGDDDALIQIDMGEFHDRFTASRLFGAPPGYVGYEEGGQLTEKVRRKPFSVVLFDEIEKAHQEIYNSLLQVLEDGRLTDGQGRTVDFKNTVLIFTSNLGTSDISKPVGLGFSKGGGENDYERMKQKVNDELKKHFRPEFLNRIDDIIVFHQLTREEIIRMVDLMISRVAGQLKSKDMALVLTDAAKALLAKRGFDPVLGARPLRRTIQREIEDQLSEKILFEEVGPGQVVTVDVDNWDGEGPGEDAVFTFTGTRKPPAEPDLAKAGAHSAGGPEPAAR
Sequence of ClpC1-NTD substrate, M. tuberculosis ClpC1P1P2 (P9WPC3 whole entry, further chain): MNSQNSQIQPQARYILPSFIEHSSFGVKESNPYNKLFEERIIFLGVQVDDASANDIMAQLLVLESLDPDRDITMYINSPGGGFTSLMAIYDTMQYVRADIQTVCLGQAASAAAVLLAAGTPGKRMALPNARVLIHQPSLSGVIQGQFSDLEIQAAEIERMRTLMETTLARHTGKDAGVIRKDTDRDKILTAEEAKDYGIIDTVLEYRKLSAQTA

[11] = molecular target: endogenous ClpC1 in Msm #607 cells (Mycolicibacterium smegmatis, UniProt A0R574); assay type: cell-based, M. smegmatis
Sequence of endogenous ClpC1 in Msm #607 cells (A0R574 whole entry): as the sequence (A0R574 whole entry) above

[12] = read-out: DC50, single measurements

Sequence of ClpC1 NTD protein (M. tuberculosis) (P9WPC9 1-156, looked up, natural form): as the sequence (P9WPC9 1-156, looked up, natural form) above

With `CO[C@H](c1ccccc1)[C@@H]1NC(=O)[C@H](C)NC(=O)[C@H](C[C@@H](C)CO)N(C)C(=O)[C@H](Cc2cn(Cc3cn(CCCCCn4cc(Cn5cc(C[C@@H]6NC(=O)[C@H](C(C)C)NC(=O)[C@H](CC(C)C)N(C)C(=O)[C@H](C(C)C)NC(=O)[C@H]([C@H](OC)c7ccccc7)NC(=O)[C@H](C)NC(=O)[C@H](C[C@@H](C)CO)N(C)C6=O)c6ccccc65)nn4)nn3)c3ccccc23)NC(=O)[C@H](C(C)C)NC(=O)[C@H](CC(C)C)N(C)C(=O)[C@H](C(C)C)NC1=O` [Compound 9] the Kd ([1]; SPR (Supplementary Table 1), read-out: KD ClpC1-NTD Mean ± SD) was 0.0006 ± 0.0002 µM, the koff ([1]; SPR dissociation rate constant, read-out: koff ClpC1-NTD Mean ± SD) was 0.0005 s⁻¹ and the “koff ClpC1-NTD” value ([1]; SPR, single independent measurements) was 0.0005 s⁻¹ and 0.0006 s⁻¹. The Kd ([1]; SPR, single independent measurements, read-out: KD ClpC1-NTD) was 0.000453 µM and 0.000515 µM and 0.000745 µM, the koff ([1]; SPR, single independent measurements, read-out: koff ClpC1-NTD) was 0.0005 s⁻¹ and the Papp A→B (in vitro; Caco-2, CACO permeability PEAB) was less than 1.2 ×10⁻⁶ cm/s. The Papp B→A (in vitro; Caco-2, CACO permeability PEBA) was less than 0.28 ×10⁻⁶ cm/s, the Papp A→B (in vitro; Caco-2, Caco-2 permeability P (A-B)) was less than 0.2 ×10⁻⁶ cm/s and the “Caco-2 Int. Perm” value (Caco-2 monolayers) was 0.1. For the same compound, the “Caco-2 permeability P (B-A)” value (Caco-2 monolayers) was 0, the “Microsomal Stability Mouse QH” value ([2]; Mouse) was 24.7% and the “Microsomal Stability Mice” value ([2]; clearance in microsomes) was 25 %Qh. For the same compound, the “Microsomal Stability Rat QH” value ([3]; Rat) was less than 23.100%, the “Microsomal Stability Rat” value ([3]; clearance in microsomes) was less than 23 %Qh and the “Microsomal Stability Human QH” value ([4]; Human) was 43.3%. For the same compound, the “Microsomal Stability Human” value ([4]; clearance in microsomes) was 43 %Qh, the “Hepatocyte Mice” value [5] was 15 %Qh and the “Hepatocyte Stability Mouse QH” value [5] was 15.001%. For the same compound, the “Hepatocyte Rat” value [6] was 6 %Qh, the “Hepatocyte Stability Rat QH” value [6] was 6.192% and the “Hepatocyte Human” value [7] was 12 %Qh. The “Hepatocyte Stability Human QH” value [7] was 12.386%, the MIC ([8]; Mycobacterium tuberculosis, Mtb H37Rv (Supplementary Table 2), read-out: MIC Mtb) was 0.3 ± 0.1 µM (≈ 0.611 µg/mL) and the MIC ([8]; Mycobacterium tuberculosis, single determinations, read-out: Mtb MIC) was 0.39 µM (≈ 0.794 µg/mL). It also gave an MIC ([8]; single determinations, read-out: Mtb MIC) of 0.195 µM (≈ 0.397 µg/mL), an MIC (Msm 607; Mycolicibacterium smegmatis, 607, read-out: MIC Msm 607) of 0.8 µM (≈ 1.63 µg/mL) and an MIC (Msm 607; Mycolicibacterium smegmatis, 607, read-out: Msm 607 MIC, single determinations) of 0.78 µM (≈ 1.59 µg/mL). The MIC (Msm 700084; Mycolicibacterium smegmatis, 700084, single determinations, read-out: Msm 700084 MIC) was greater than 50 µM, the MIC (Msm 700084; Mycolicibacterium smegmatis, 700084, read-out: MIC Msm 700084) was greater than 50 µM and the “1-Dmax, single measurements” value ([9]; Msm, Measurement 1-6) was 54.4% and 51.4%. The 1-Dmax (percent substrate remaining at maximal degradation) ([9]; Msm, Measurement 1-6, read-out: 1-Dmax, single measurements) was 54.7%, the DC50 ([9]; Msm, Measurement 1-6, read-out: DC50, single measurements) was 7.8 µM and 9.2 µM and 6.9 µM and the 1-Dmax (percent substrate remaining at maximal degradation) ([9]; Msm, mean of the measurements, read-out: 1-Dmax, Mean) was 54%. For the same compound, the DC50 ([9]; Msm, mean of the measurements, read-out: DC50, Mean) was 8 µM, the “1-Dmax, single measurements” value ([10]; Mtb, Measurement 1-4) was 29.9% and 20.5% and the 1-Dmax (percent substrate remaining at maximal degradation) ([10]; Mtb, Measurement 1-4, read-out: 1-Dmax, single measurements) was 27.5%. The DC50 ([10]; Mtb, Measurement 1-4, read-out: DC50, single measurements) was 7.2 µM and 8.7 µM and 4.4 µM, the 1-Dmax (percent substrate remaining at maximal degradation) ([10]; Mtb, mean of the measurements, read-out: 1-Dmax, Mean) was 26% and the DC50 ([10]; Mtb, mean of the measurements, read-out: DC50, Mean) was 6.8 µM.

In the case of `CO[C@@H](c1ccccc1)[C@H]1NC(=O)[C@@H](C)NC(=O)[C@@H](C[C@H](C)CO)N(C)C(=O)[C@@H](Cc2cn(C)c3ccccc23)NC(=O)[C@@H](Cc2cn(CCCCCn3cc(C[C@H]4NC(=O)[C@@H](CC(C)C)N(C)C(=O)[C@@H](C(C)C)NC(=O)[C@@H]([C@@H](OC)c5ccccc5)NC(=O)[C@@H](C)NC(=O)[C@@H](C[C@H](C)CO)N(C)C(=O)[C@@H](Cc5cn(C)c6ccccc56)NC4=O)nn3)nn2)NC(=O)[C@@H](CC(C)C)N(C)C(=O)[C@@H](C(C)C)NC1=O` [Compound 12a], the “degradation of the His6-tagged ClpC1-NTD substrate” value [9] is reported as “did not cause any degradation”, the DC50 ([9]; read-out: DC50, Mean) is reported as greater than 100 µM and the DC50 [9, 12] is reported as greater than 100 µM. For the same compound, the DC50 ([10]; read-out: DC50, Mean) was greater than 100 µM, the DC50 [10, 12] was greater than 100 µM and the “intracellular degradation of ClpC1” value [11] was “inactive”.

Reference: article PMC10914731, “Homo-BacPROTAC-induced degradation of ClpC1 as a strategy against drug-resistant mycobacteria” (Nature Communications, 2024)
